Results taken from paper PMC7496434 (Chemmedchem, 2020).

Tests used:
[1] = target: T1, human adenosine A3 receptor (A3AR) (Homo sapiens, UniProt P0DMS8); assay: [3H]PSB-11 radioligand competition, CHO membranes; format: binding; conditions: 0.5 nM [3H]PSB-11, 50 mM Tris-HCl pH 7.4, 23 °C, 60 min; read-out: 6
T1 construct: gene ADORA3; membrane preparations of CHO cells expressing human A3AR
T1 sequence (P0DMS8 1-318): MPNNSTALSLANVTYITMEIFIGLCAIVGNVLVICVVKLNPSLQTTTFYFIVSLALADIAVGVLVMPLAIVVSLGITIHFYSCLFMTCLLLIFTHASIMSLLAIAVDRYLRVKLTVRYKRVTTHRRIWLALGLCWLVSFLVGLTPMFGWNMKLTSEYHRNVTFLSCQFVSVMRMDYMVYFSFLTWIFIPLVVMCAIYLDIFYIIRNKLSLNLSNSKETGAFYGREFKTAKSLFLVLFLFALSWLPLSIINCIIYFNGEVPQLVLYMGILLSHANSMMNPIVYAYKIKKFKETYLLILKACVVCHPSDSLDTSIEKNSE
Source text: [3H]PSB-11 radioligand competition, CHO membranes on human adenosine A3 receptor (A3AR)

[2] = target: T2, human P2X3 receptor (Homo sapiens, UniProt P56373); assay: inhibition of ATP-induced calcium influx; format: cell-based; conditions: agonist ATP at ~80% of maximal effect; read-out: 6
T2 construct: gene P2RX3; full-length receptor stably expressed in 1321 N1 astrocytoma cells; homotrimer
T2 sequence (P56373 1-397): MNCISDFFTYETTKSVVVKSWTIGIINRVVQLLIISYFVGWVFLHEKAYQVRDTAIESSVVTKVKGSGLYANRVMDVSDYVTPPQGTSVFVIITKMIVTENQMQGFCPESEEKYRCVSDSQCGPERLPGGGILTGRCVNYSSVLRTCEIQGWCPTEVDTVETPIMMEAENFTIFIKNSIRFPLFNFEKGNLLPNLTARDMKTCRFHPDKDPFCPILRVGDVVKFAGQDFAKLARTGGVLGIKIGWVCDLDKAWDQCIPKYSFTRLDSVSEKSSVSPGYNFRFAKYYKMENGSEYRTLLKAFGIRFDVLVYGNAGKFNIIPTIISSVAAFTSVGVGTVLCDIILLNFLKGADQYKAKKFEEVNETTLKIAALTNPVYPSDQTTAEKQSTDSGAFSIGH
Source text: inhibition of ATP-induced calcium influx on human P2X3 receptor

[3] = target: T3, human leukocyte elastase (HLE) (Homo sapiens, UniProt P08246); assay: chromogenic assay, […] nm; format: biochemical; conditions: 100 μM MeO-Suc-Ala-Ala-Pro-Val-pNA, sodium phosphate pH 7.8, 500 mM NaCl, 25 °C, 1.5% DMSO; read-out: 6
T3 construct: gene ELANE; enzyme stock in sodium acetate buffer
T3 sequence (P08246 30-247): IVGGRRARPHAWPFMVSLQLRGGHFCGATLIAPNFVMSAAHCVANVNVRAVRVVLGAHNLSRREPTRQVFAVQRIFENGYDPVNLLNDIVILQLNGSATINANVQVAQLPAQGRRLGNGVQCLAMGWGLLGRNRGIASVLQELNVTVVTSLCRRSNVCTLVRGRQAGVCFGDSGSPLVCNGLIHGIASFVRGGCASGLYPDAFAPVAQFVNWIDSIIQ

[4] = system: 1321N1 astrocytoma cells; assay: cells; set-up: MTT viability assay, absorbance at 570 nm; conditions: Homo sapiens, 1321-N1, 72 h; read-out: Growth inhibition IC50 ± SEM
Experimental: MTT assays: The test compounds were investigated at human 1321 N1 astrocytoma cells using the 3‐(4,5‐dimethylthiazol‐2‐yl)‐2,5‐diphenyltetrazolium bromide (MTT) assay in order to assess their cytotoxic effects. Assays were performed as previously described by Baqi et al.30 In brief, cells were detached from the 175 cm^2 culture flasks in which they were grown and subsequently counted using a Neubauer haemocytometer. Then, they were resuspended in the growth medium. An aliquot of the cell suspension (180 μL) was added into each well of a 96‐well plate to obtain 1000 cells per well and incubated for 24 h at 37 °C, 5 % CO2, and 95 % humidity. The outer wells of the 96‐well plate were filled with 200 μL of phosphate‐buffered saline (PBS) to prevent evaporation of the fluid. After 24 h, stock solutions (10 mM) of the test compounds (archazolids) were prepared in DMSO and diluted with cell culture medium to give tenfold of the final concentrations. […] The spectrophotometric absorbance was subsequently measured at 570 nm using a FlexStation (3 multimode plate reader, molecular devices) with a filter of 690 nm. The data were analyzed using Microsoft Excel and GraphPad Prism 5. Results were evaluated by comparing the absorbance of the wells containing compound‐treated cells with the absorbance of wells containing 1 % DMSO without any drug (=100 % viability). […]

| SMILES | Ki [1] | IC50 [2] | Ki [3] | IC50 [4] |
| --- | --- | --- | --- | --- |
| COC1C(C)=CCCCCOC(=O)CCCC(C)=CC(O)C(C)C=C(C)C=C(C)C=CC(O)C1C (stereo not shown) [compound 6, Analogue 6] | 0.436 ± 0.111 µM | 1.19 ± 0.18 µM | 13.3 ± 1.5 µM | – |
| COC1C(C)=CCCCCOC(=O)CCCC(C)=CC(O)C(C)C=C(C)C=C(C)C=CC(O)C1C (stereo not shown) [compound 6] | – | – | – | 0.0196 ± 0.004 µM |
